Measurements reported in patent US8202906B2, “Use of docosahexanoic acid as active substance for the treatment of lipodystrophy” (Proyecto Empresarial Brudy, S.L., priority 2002, dated 2012).
Several values for one entry are separate records, joined by “and”; a condition that tells them apart may be missing. Equal values may be shown once.

Key:
[1] = tested on: HIV-infected patients under HAART regimen and presenting lipodystrophy syndrome; assay: Example 1: 3 months' administration to HIV-infected patients under HAART with lipodystrophy syndrome; format: in vivo, human; design: LDL / VLDL / COL. / TG / HDL: unit not given here; settings: 4 grams/day
Protocol: Four HIV-infected patients under HAART regimen and presenting lipodystrophy syndrome were administered 4 grams/day of a tuna oil with a DHA content of 70%. After three months' administration of DHA to said patients, the following discoveries were made, even taking account of the short period of administration: • 1. […] Mean reduction of 56% in the plasma triglycerides number. • 3. Mean reduction of 25% in the total plasma cholesterol number. • 4. Mean increase of 9% in the plasma HDL cholesterol number. • 5. Mean reduction of 18% in the plasma LDL cholesterol number.

[2] = tested on: patients treated with DHA (lipodystrophy); assay: Example 2: 300-day monitoring of the four patients treated with DHA; format: in vivo, human; design: COL. / VLDL / TG / HDL / LDL: unit not given here; settings: for COL. / HDL / LDL / TG / VLDL: individual patients 1-4
Description: From the four patients treated with DHA at elevated dosages (1.5 g/day), all of them have been monitored for 300 days and, although notable fluctuations are observed, especially regarding to the triglicerids (see Table 2), after 300 days of monitoring, the reduction's mean in the number of triglycerids with respect to the basal level is 66% and for the cholesterol is 28.0%.
All patients have improved their fat redistribution, from the point of view subjective and according to the skill's criterion.

[3] = 3 months, mean of four patients
[4] = after 3 months of treatment, individual patients 1-4
[5] = 1.5 g/day, after 300 days of monitoring, four patients

CC/C=C\C/C=C\C/C=C\C/C=C\C/C=C\C/C=C\CCC(=O)O [DHA, docosahexaenoic acid]
Mean increase in the plasma HDL cholesterol number [1, 3]: 9% | Mean reduction in the plasma LDL cholesterol number [1, 3]: 18% | Mean reduction in the plasma triglycerides number [1, 3]: 56% | Mean reduction in the total plasma cholesterol number [1, 3]: 25% | COL. [1, 4]: 5.46 and 9.48 and 3.82 and 9.9 | HDL [1, 4]: 1.57 and 0.91 and 1.05 and 0.98 | LDL [1, 4]: 3.43 and 3.35 and 1.97 and 6.67 | TG [1, 4]: 1 and 10.66 and 1.73 and 3.41 | VLDL [1, 4]: 0.46 and 3.74 and 0.8 and 1.82 | drop of HDL cholesterol [2, 5]: 11.6% | reduction's mean in the cholesterol with respect to the basal level [2, 5]: 28.0% | reduction's mean in the number of triglycerids with respect to the basal level [2, 5]: 66% | COL. ([2]; 15 days of treatment): 6.37 and 9.74 and 3.92 and 8.73 | HDL ([2]; 15 days of treatment): 1.7 and 0.98 and 1.05 and 1.03 | LDL ([2]; 15 days of treatment): 4.14 and 6.07 and 1.86 and 5.35 | TG ([2]; 15 days of treatment): 1.16 and 5.98 and 3.11 and 5.18 | VLDL ([2]; 15 days of treatment): 0.53 and 2.61 and 1.01 and 2.35 | COL. ([2]; 30 days of treatment): 6.16 and 8.4 and 4.07 and 8.5 | HDL ([2]; 30 days of treatment): 1.79 and 0.86 and 1.06 and 1.16 | LDL ([2]; 30 days of treatment): 3.7 and 4.3 and 2.0 and 5.0 | TG ([2]; 30 days of treatment): 1.35 and 6.9 and 3.09 and 5.74 | VLDL ([2]; 30 days of treatment): 0.62 and 3.18 and 0.97 and 2.26 | COL. ([2]; 60 days of treatment): 5.46 and 9.48 and 3.82 and 9.9 | HDL ([2]; 60 days of treatment): 1.57 and 0.91 and 1.05 and 0.98 | LDL ([2]; 60 days of treatment): 3.43 and 3.35 and 1.97 and 6.67 | TG ([2]; 60 days of treatment): 1 and 10.66 and 1.73 and 3.41 | VLDL ([2]; 60 days of treatment): 0.46 and 3.74 and 0.8 and 1.82 | COL. ([2]; 120 days of treatment): 5.49 and 8.24 and 3.47 and 13.63 | HDL ([2]; 120 days of treatment): 1.56 and 1.08 and 1.16 and 0.7 | LDL ([2]; 120 days of treatment): 3.26 and 4.6 and 1.61 and 1.46 | TG ([2]; 120 days of treatment): 1.45 and 6.36 and 1.51 and 31.7 | VLDL ([2]; 120 days of treatment): 0.67 and 2.56 and 0.7 and 9.67 | COL. ([2]; 180 days of treatment): 6.15 and 9.64 and 3.76 and 13.21 | HDL ([2]; 180 days of treatment): 1.56 and 1.04 and 0.94 and 1.48 | LDL ([2]; 180 days of treatment): 3.38 and 2.3 and 1.5 and 2.09 | TG ([2]; 180 days of treatment): 2.63 and 15.75 and 2.87 and 16.37 | VLDL ([2]; 180 days of treatment): 1.21 and 4.38 and 132 and 3.97 | COL. ([2]; 240 days of treatment): 5.7 and 8.1 and 4.04 and 5.33 | HDL ([2]; 240 days of treatment): 1.67 and 0.98 and 1.09 and 1.17 | LDL ([2]; 240 days of treatment): 3.3 and 4.93 and 2.1 and 3.16 | TG ([2]; 240 days of treatment): 1.59 and 5.36 and 1.85 and 2.18 | VLDL ([2]; 240 days of treatment): 0.73 and 2.12 and 0.85 and 1 | COL. ([2]; 300 days of treatment): 6.01 and 9.3 and 4.34 and 4.27 | HDL ([2]; 300 days of treatment): 1.23 and 1.08 and 0.89 and 1.22 | LDL ([2]; 300 days of treatment): 4.06 and 5.31 and 2.7 and 2.42 | TG ([2]; 300 days of treatment): 1.57 and 7.21 and 1.62 and 1.36 | VLDL ([2]; 300 days of treatment): 0.72 and 2.92 and 0.75 and 0.63
